The first assay deals with T1, GSK-3β (Homo sapiens, UniProt P49841).
T1 construct: gene GSK3B
T1 sequence (P49841 whole entry): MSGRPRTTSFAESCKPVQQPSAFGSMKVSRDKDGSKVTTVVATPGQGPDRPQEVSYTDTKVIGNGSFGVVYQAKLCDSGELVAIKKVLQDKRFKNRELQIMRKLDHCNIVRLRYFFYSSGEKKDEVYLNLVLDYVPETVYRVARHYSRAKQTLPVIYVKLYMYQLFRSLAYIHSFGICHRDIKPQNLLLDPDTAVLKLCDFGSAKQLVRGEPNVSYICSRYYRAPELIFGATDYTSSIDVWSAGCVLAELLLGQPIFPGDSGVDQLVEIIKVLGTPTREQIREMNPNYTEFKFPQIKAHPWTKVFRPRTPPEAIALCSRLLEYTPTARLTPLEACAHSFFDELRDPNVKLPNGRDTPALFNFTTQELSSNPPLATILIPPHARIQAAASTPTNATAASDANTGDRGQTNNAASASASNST
The experiment in a line: biochemical.
Conditions: not given
Usually IC50 stands for the concentration that inhibits the measured activity by half. `O[C@@H]1CC=C2CCN3Cc4cc5c(cc4[C@H]1[C@@H]23)OCO5` [compound 14, Caranine]: inhibition was half-maximal at 30.8 µM (IC50).

On to `COc1cc2c(cc1O)C1C(CC=C3CCN(C)C31)OC2=O` (stereo not drawn) [compound 23, 9-O-Demethylhomolycorine], for which the IC50 came to 30 µM.

With `CN1CCC2=CCC3OC(=O)c4cc5c(cc4C3C21)OCO5` (stereo not drawn) [compound 24, Masonine], the IC50 worked out at 27.8 µM.

Another assay has as its target T1, GSK-3β. Kind of assay: biochemical. Also noted: Kinase-Glo luminescent ATP-consumption assay, human recombinant GSK-3beta, GSM peptide substrate, 1 uM ATP, 30 min 37 C.
Conditions: not given
The source holds these as a separate data set. The procedure: GSK-3β activity and inhibition were studied according to the luminescent method of Baki et al. using a Kinase-Glo reagent kit. The reaction was performed in 96-well white plates. Each well contained 10 µL of test compound (dissolved in DMSO) at 1 mM concentration and diluted in advance in an assay buffer (pH 7.5) containing 50 mM HEPES, 1 mM EDTA, 1 mM EGTA, and 15 mM magnesium acetate, to the desired concentration, 10 µL of ATP (1 µM final concentration), 10 µL of 100 µM GSM and 10 µL of GSK-3β (20 ng). Ten microliters of either buffer or SB-415286 solution (5 µM final concentration) was added instead of test compound solution in order to obtain the positive (maximum activity) and negative control (total inhibition), respectively. […] The mix was left to react at 37 °C for 30 min. Then the enzymatic reactions were stopped with 40 µL of Kinase-Glo reagent. Glow-type luminescence was recorded after 10 min. The activity is proportional to the difference of the total and consumed ATP. The inhibition activities were calculated on the basis of maximal activity, measured in the absence of inhibitor, and the maximal inhibition was measured in the presence of the reference compound. The IC50 values were calculated using the GraphPad Prism 4.0 program (GraphPad Software Inc., CA, USA). Kinase-Glo Kit was obtained from Promega (Promega Biotech Iberica, S.L., Madrid, Spain), and human recombinant GSK-3β and GSM substrate mimicking Glycogen Muscle Synthase from Merck Millipore (Darmstadt, Germany). Adenosine 5-triphosphate (ATP) disodium salt hydrate, ammonium acetate, ammonium hydroxide, 4-(2-hydroxyethyl)piperazine-1-ethanesulfonic acid (HEPES), ethylene glycol-bis(-aminoethylether)-N,N,N,N-tetraacetic acid tetrasodium salt (EGTA), ethylenediaminetetraacetic acid (EDTA), dimethyl sulfoxide (DMSO), magnesium acetate tetrahydrate, formic acid, and 3-[(3-chloro-4-hydroxyphenyl)amino]-4-(2-nitrophenyl)-1H-pyrrol-2,5-dione were purchased from Sigma-Aldrich (St. Louis, MO, USA). The GSK-3β selective inhibitor SB-415286 ([3-(3-chloro-4-hydroxyphenylamino)-4-(2-nitrophenyl)-1H-pyrrole-2,5-dione]) was purchased from Selleck Chemicals (Houston, TX, USA). Ultrapure water was obtained using a Purite LTD water purification system (Thame, UK). The experiments were carried out using a Victor X3 multimode plate reader (Perkin Elmer, MA, USA). The inhibitory activity of the compounds was first screened at a concentration of 50 µM (Table 1); a synthetic arylindolemaleimide derivative, SB-415286, was used as a positive standard.
By inhibition is commonly meant the relative decrease from the control value, in per cent. As for `CC(=O)O[C@H]1[C@H]2c3cc4c(cc3CN3CCC(=C[C@@H]1O)[C@H]23)OCO4` [1-O-Acetyllycorine (16)], the inhibition at 50 µM was found to be 49.9 ± 1.9%.

`COc1c2c(cc3c1OCO3)[C@]13C=C[C@H](OC)C[C@H]1N(C2)C[C@@H]3O` [Ambelline (7)]: the inhibition at 50 µM is 38 ± 0.8%.

For `COc1c2c(cc3c1OCO3)[C@@]13CCN(C2)[C@@H]1C[C@@H](O)[C@@H]1O[C@@H]13` [Crinamidine (10)], the inhibition at 50 µM stood at 32.1 ± 7.9%.

For the compound `O[C@H]1C=C[C@@]23CCN(Cc4cc5c(cc42)OCO5)[C@@H]3C1` [Crinine (8)], the inhibition at 50 µM stood at 39.6 ± 5.4%.

`COc1cc2c(cc1OC)[C@@H]1[C@H](O)[C@@H](OC)C=C3CCN(C2)[C@H]31` [Galanthine (17)]: the inhibition at 50 µM is 26.4 ± 7.7%.

As for `CO[C@@H]1C=C[C@@]23c4cc5c(cc4[C@H](O)N(C[C@@H]2O)[C@H]3C1)OCO5` [Haemanthidine (4)], the inhibition at 50 µM came out at 33 ± 2.2%.

Turning to `O[C@H]1C=C[C@@]23c4cc5c(cc4CN(C[C@@H]2O)[C@H]3C1)OCO5` [Hamayne (5)], the inhibition at 50 µM is 33.9 ± 0.1%.

With `CN1CCC2=C[C@H](O)[C@H]3OC(=O)c4cc5c(cc4[C@H]3[C@@H]21)OCO5` [Hippeastrine (21)], the inhibition at 50 µM is 10.7 ± 2.5%.

Regarding `COc1cc2c(cc1OC)[C@@H](O)O[C@@H]1CC=C3CCN(C)[C@H]3[C@H]21` [Lycorenine (25)], the inhibition at 50 µM was 47.6 ± 3.5%.

On to `O[C@H]1[C@H]2c3cc4c(cc3CN3CCC(=C[C@@H]1O)[C@H]23)OCO4` [Lycorine (15)], for which the inhibition at 50 µM is 32.9 ± 0.2%.

On to `COc1ccc2c3c1O[C@H]1CC(=O)C=C[C@@]31CCN(C)C2` [Narwedine (12)], for which the inhibition at 50 µM was found to be 37.7 ± 0.3%.

In the case of `COc1cc2c(cc1O)CN1CCC3=CC[C@@H](O)[C@@H]2[C@@H]31` [Norpluviine (19)], the inhibition at 50 µM stood at 45 ± 4.3%.

`CO[C@@H]1C=C[C@@]23c4cc5c(cc4CO[C@]2(O)CN(C)[C@H]3C1)OCO5` [Tazettine (20)]: the inhibition at 50 µM was 49.2 ± 0.3%.

For the compound `COc1c2c(cc3c1OCO3)[C@@]13CCN(C2)[C@@H]1C[C@@H](OC)[C@@H]1O[C@@H]13` [Undulatine (9)], the inhibition at 50 µM turned out to be 43.3 ± 4%.

With `O[C@@H]1CC=C2CCN3Cc4cc5c(cc4[C@H]1[C@@H]23)OCO5` [compound 14, Caranine], the inhibition at 50 µM turned out to be 61.8 ± 9.2%.

For the compound `COc1cc2c(cc1O)C1C(CC=C3CCN(C)C31)OC2=O` (stereo not drawn) [compound 23, 9-O-Demethylhomolycorine], the inhibition at 50 µM came to 63.6 ± 1.3%.

Consider `CN1CCC2=CCC3OC(=O)c4cc5c(cc4C3C21)OCO5` (stereo not drawn) [compound 24, Masonine], for which the inhibition at 50 µM stood at 66 ± 4%.

The target in a further assay is T1, GSK-3β. Kind of assay: Kinase-Glo luminescent kinase assay, single concentration […]. It is filed as biochemical. The settings on record: read-out: % of Inhibition.
For the compound `CO[C@@H]1C=C[C@@]23c4cc5c(cc4CN(C[C@@H]2O)[C@H]3C1)OCO5` [compound 3, Haemanthamine], the inhibition at 50 µM was determined as 52.4%.

As for `COc1cc2c(cc1OC)[C@H]1[C@H]3C(=CC[C@H]1OC2=O)CCN3C` [compound 22, Homolycorine], the inhibition at 50 µM turned out to be 54.4%.

For `CCOC1OC2CC=C3CCN(C)C3C2c2cc(OC)c(OC)cc21` (stereo not drawn) [compound 26, O-Ethyllycorenine], the inhibition at 50 µM is 57.7%.

In the case of `CN1CCC2=CCC3OC(O)c4cc5c(cc4C3C21)OCO5` (stereo not drawn) [compound 27, Oduline], the inhibition at 50 µM turned out to be 57.7%.

(Values after paper PMC6017564, “Amaryllidaceae Alkaloids as Potential Glycogen Synthase Kinase-3β Inhibitors” (Molecules : A Journal of Synthetic Chemistry and Natural …, 2018).)
